Measurements as given in ChEMBL document CHEMBL4680376, “Discovery of Orally Active and Nonsteroidal Farnesoid X Receptor (FXR) Antagonist with Propensity for Accumulation and Responsiveness in Ileum” (ACS Med Chem Lett, 2021).
pIC50: −log10 of the molar value.

How the values were obtained:
Huh-7 = assay: Cytotoxicity against human HuH-7 cells by MTT assay
[1] = Metabolic stability in mouse liver microsomes assessed as compound remaining at 1 ug/ml incubated for 30 mins by LC-MS/MS analysis; settings: at 1 µg/mL
Bile acid receptor [2] = target: T1, Bile acid receptor (Homo sapiens, UniProt Q96RI1); assay: Antagonist activity against recombinant human FXR transfected in human HuH-7 cells co-transfected with FRE-luciferase assessed as reduction in CDCA-induced luciferase expression incubated for 24 hrs by luciferase reporter gene assay
T1 sequence (Q96RI1 whole entry): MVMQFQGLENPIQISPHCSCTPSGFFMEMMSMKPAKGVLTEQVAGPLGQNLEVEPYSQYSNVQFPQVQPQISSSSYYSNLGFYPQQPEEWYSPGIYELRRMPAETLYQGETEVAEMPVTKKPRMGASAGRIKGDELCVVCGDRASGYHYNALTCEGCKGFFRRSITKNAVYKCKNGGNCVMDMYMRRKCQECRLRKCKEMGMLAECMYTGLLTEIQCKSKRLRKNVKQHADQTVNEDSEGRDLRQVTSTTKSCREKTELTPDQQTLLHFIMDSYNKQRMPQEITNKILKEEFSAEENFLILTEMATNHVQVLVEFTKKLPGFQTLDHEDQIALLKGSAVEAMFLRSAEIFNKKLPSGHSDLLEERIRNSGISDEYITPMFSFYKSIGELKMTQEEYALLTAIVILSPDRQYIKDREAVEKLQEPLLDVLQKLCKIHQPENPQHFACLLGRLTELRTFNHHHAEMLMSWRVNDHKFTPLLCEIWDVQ

[3] = Metabolic stability in rat liver microsomes assessed as compound remaining at 1 ug/ml incubated for 30 mins by LC-MS/MS analysis; settings: at 1 µg/mL
in vivo [4] = settings: Sprague-Dawley, rat, po, 30 mg/kg
in vivo [5] = settings: Sprague-Dawley, rat, po, 30 mg/kg; remark: listed apart in the source
in vivo [6] = settings: Sprague-Dawley, rat, po, 30 mg/kg; remark: listed apart in the source
Bile acid receptor [7] = target: T1, Bile acid receptor; assay: Antagonist activity at recombinant GST-tagged FXR LBD (unknown origin) assessed as inhibition of GW4064-induced Fluorecein-SRC2-2 coactivator peptide recruitment by LanthaScreen TR-FRET co-regulator assay
[8] = Plasma concentration in Sprague-Dawley rat at 30 mg/kg, po measured after 6 hrs by LC-MS/MS analysis
[9] = rat, in vivo, iv, 1 mg/kg, 6 h
in vivo [10] = settings: Sprague-Dawley, rat, po, 30 mg/kg; remark: listed apart in the source

remaining at 0.5 h, 1 ug/ml [1] [%]	pIC50 (Bile acid receptor [2])	remaining at 0.5 h, 1 ug/ml [3] [%]	Tmax at 6 h (in vivo [4]) [h]	Cmax at 6 h (in vivo [5]) [ng/mL]	bioavailability at 6 h (in vivo [6]) [%]	pIC50 (Bile acid receptor [7])	concentration at 6 h [8] [ng/mL]	AUC [9] [ng·h/mL]	AUC(0-t) at 6 h (in vivo [10]) [ng·h/mL]	SMILES	pIC50 (Huh-7)
10.6	–	–	–	–	–	–	–	–	–	Cc1ccc2nc([C@H](CC3CCN(C(=O)C(C)C)CC3)N3C(=O)CN(c4ccc(Oc5ccc(F)cc5)cc4)C3=O)n(C)c2c1	< 4.00
2.4	> 12.00	12.1	2	483	18	–	–	–	–	COc1ccc(Oc2ccc(N3CC(=O)N([C@@H](CC4CCN(C(=O)C(C)C)CC4)c4nc5ccc(C)cc5n4C)C3=O)cc2)cc1	< 4.00
29.4	8.74	–	–	–	–	6.85	–	–	–	CC(C)C(=O)N1CCC(C[C@@H](c2nc3ccccc3n2C2CC2)N2C(=O)CN(c3ccc(Oc4ccc(F)cc4)cc3)C2=O)CC1	< 4.00
54	–	84.4	3	2850	55.4	–	2480	937	15600	CC(C)C(=O)N1CCC(C[C@@H](c2nc3ccc(F)cc3n2C2CC2)N2C(=O)CN(c3ccc(Oc4ccc(F)cc4)cc3)C2=O)CC1	< 4.00
